Data set [1] addresses Dopamine transporter (DAT) (Mus musculus, UniProt Q61327). As to the kind of experiment: inhibition of [3H]DA uptake in mouse striatal synaptosomes. It counts as biochemical.
Data set [2] deals with Dopamine transporter (DAT) (Mus musculus, UniProt Q61327, T53A). The description is as above. It counts as biochemical.
Substrate in the data set “[3H]DA uptake kinetics”: NCCc1ccc(O)c(O)c1
As to the kind of experiment: [3H]DA uptake kinetics. It counts as biochemical, Mus musculus.

Turning to `CC(N)Cc1ccccc1` (centres unmarked) [amphetamine], the IC50 in data set [1] came out at 183 ± 23 nM; in data set [2], 198 ± 68 nM. The corresponding values for `CN[C@@H](C)Cc1ccccc1` [METH] are 280 ± 40 nM and 262 ± 25 nM. In the case of `COC(=O)[C@H]1[C@@H](OC(=O)c2ccccc2)C[C@@H]2CC[C@H]1N2C` [cocaine], the figures for the IC50 in data set [1] and in data set [2] were 268 ± 58 nM and 1270 ± 348 nM, respectively.

B1: Dopamine transporter (DAT) (Mus musculus) (protein)
chain: MSKSKCSVGPMSSVVAPAKEPNAVGPREVELILVKEQNGVQLTNSTLINPPQTPVEVQERETWSKKIDFLLSVIGFAVDLANVWRFPYLCYKNGGGAFLVPYLLFMVIAGMPLFYMELALGQFNREGAAGVWKICPVLKGVGFTVILISFYVGFFYNVIIAWALHYFFSSFTMDLPWIHCNNTWNSPNCSDAHSSNSSDGLGLNDTFGTTPAAEYFERGVLHLHQSRGIDDLGPPRWQLTACLVLVIVLLYFSLWKGVKTSGKVVWITATMPYVVLTALLLRGVTLPGAMDGIRAYLSVDFYRLCEASVWIDAATQVCFSLGVGFGVLIAFSSYNKFTNNCYRDAIITTSINSLTSFSSGFVVFSFLGYMAQKHNVPIRDVATDGPGLIFIIYPEAIATLPLSSAWAAVFFLMLLTLGIDSAMGGMESVITGLVDEFQLLHRHRELFTLGIVLATFLLSLFCVTNGGIYVFTLLDHFAAGTSILFGVLIEAIGVAWFYGVQQFSDDIKQMTGQRPNLYWRLCWKLVSPCFLLYVVVVSIVTFRPPHYGAYIFPDWANALGWIIATSSMAMVPIYATYKFCSLPGSFREKLAYAITPEKDRQLVDRGEVRQFTLRHWLLV
As for B1, the Km in data set [3H]DA uptake kinetics was 0.0778 ± 0.003009 µM.

B2: Dopamine transporter (DAT) (Mus musculus; T53A) (protein)
chain: MSKSKCSVGPMSSVVAPAKEPNAVGPREVELILVKEQNGVQLTNSTLINPPQAPVEVQERETWSKKIDFLLSVIGFAVDLANVWRFPYLCYKNGGGAFLVPYLLFMVIAGMPLFYMELALGQFNREGAAGVWKICPVLKGVGFTVILISFYVGFFYNVIIAWALHYFFSSFTMDLPWIHCNNTWNSPNCSDAHSSNSSDGLGLNDTFGTTPAAEYFERGVLHLHQSRGIDDLGPPRWQLTACLVLVIVLLYFSLWKGVKTSGKVVWITATMPYVVLTALLLRGVTLPGAMDGIRAYLSVDFYRLCEASVWIDAATQVCFSLGVGFGVLIAFSSYNKFTNNCYRDAIITTSINSLTSFSSGFVVFSFLGYMAQKHNVPIRDVATDGPGLIFIIYPEAIATLPLSSAWAAVFFLMLLTLGIDSAMGGMESVITGLVDEFQLLHRHRELFTLGIVLATFLLSLFCVTNGGIYVFTLLDHFAAGTSILFGVLIEAIGVAWFYGVQQFSDDIKQMTGQRPNLYWRLCWKLVSPCFLLYVVVVSIVTFRPPHYGAYIFPDWANALGWIIATSSMAMVPIYATYKFCSLPGSFREKLAYAITPEKDRQLVDRGEVRQFTLRHWLLV
With B2, the Michaelis-Menten constant (Km) in data set [3H]DA uptake kinetics is 0.07117 ± 0.006766 µM.

A word on the IC50: it is the concentration that inhibits the measured activity by half. As a reminder, the Km is the concentration of substrate that gives half-maximal velocity.
